Test results published in paper PMC4303209, “A novel phosphatidylinositol 3-kinase (PI3K) inhibitor directs a potent FOXO-dependent, p53-independent cell cycle arrest phenotype characterized by the differential induction of a subset of FOXO-regulated genes” (Breast Cancer Research : BCR, 2014).

Tested on: MCF-7 breast cancer cells
Assay: Microarray gene expression analysis (Agilent whole human genome 4 x 44K; compound vs DMSO, LIMMA log2 fold change)
Assay type: cell-based
Conditions: Apoptosis genes

Compound: Cn1ncc2c(N3CCOCC3)nc(-c3cccc(O)c3)nc21 [ETP-45658]
- ITGB3BP log2FC (Gene 23421): 0.773
- RYBP log2FC (Gene 23429): 0.520
- HEY2 log2FC (Gene 23493): -0.060
- SCRIB log2FC (Gene 23513): -0.165
- CLCF1 log2FC (Gene 23529): -0.993
- PRAME log2FC (Gene 23532): -0.401
- DDAH2 log2FC (Gene 23564): 0.126
- ZNF346 log2FC (Gene 23567): 0.167
- CASP14 log2FC (Gene 23581): -0.095
- NUP62 log2FC (Gene 23636): -0.576
- PPP1R15A log2FC (Gene 23645): 1.011
- AIPL1 log2FC (Gene 23746): -0.252
- FKBP8 log2FC (Gene 23770): -0.132
- BCL2L13 log2FC (Gene 23786): 0.179
- MTCH1 log2FC (Gene 23787): 0.077
- NGEF log2FC (Gene 25791): 0.588
- SPDEF log2FC (Gene 25803): -0.326
- TNFAIP8 log2FC (Gene 25816): 0.706
- PRDX5 log2FC (Gene 25824): -0.074
- BRMS1 log2FC (Gene 25855): -0.580
- SIN3A log2FC (Gene 25942): 0.788
- HIGD1A log2FC (Gene 25994): 0.198
- SERBP1 log2FC (Gene 26135): 0.313
- NOC2L log2FC (Gene 26155): -0.773
- TIAM2 log2FC (Gene 26230): 0.410
- AATF log2FC (Gene 26574): -0.362
- GREM1 log2FC (Gene 26585): -0.311
- CKAP2 log2FC (Gene 26586): 0.829
- CYFIP2 log2FC (Gene 26999): -0.154
- NGFRAP1 log2FC (Gene 27018): 0.134
- ANKRD1 log2FC (Gene 27063): 0.342
- GHITM log2FC (Gene 27069): 0.501
- BBC3 log2FC (Gene 27113): 2.148
- CIDEB log2FC (Gene 27141): -0.076
- GLS2 log2FC (Gene 27165): 0.175
- TNFRSF21 log2FC (Gene 27242): -1.178
- PDCD4 log2FC (Gene 27250): 1.281
- KLHL20 log2FC (Gene 27252): 0.174
- CECR2 log2FC (Gene 27443): -0.568
- DBNL log2FC (Gene 28988): -0.399
- HIPK2 log2FC (Gene 28996): -0.166
- SAP30BP log2FC (Gene 29115): -0.314
- LGALS13 log2FC (Gene 29124): -0.151
- CARD10 log2FC (Gene 29775): -0.324
- SENP1 log2FC (Gene 29843): 0.416
- TFPT log2FC (Gene 29844): -0.708
- PNMA3 log2FC (Gene 29944): 0.559
- UBQLN1 log2FC (Gene 29979): 0.311
- ERO1L log2FC (Gene 30001): 0.255
- SH3KBP1 log2FC (Gene 30011): 0.491
- KCNIP3 log2FC (Gene 30818): 0.159
- RRM2B log2FC (Gene 50484): 0.508
- G0S2 log2FC (Gene 50486): -0.063
- NOX4 log2FC (Gene 50507): -0.318
- CHST11 log2FC (Gene 50515): -0.798
- ARHGEF4 log2FC (Gene 50649): 0.114
- ARHGEF3 log2FC (Gene 50650): 0.584
- GLRX2 log2FC (Gene 51022): -0.287
- RPS27L log2FC (Gene 51065): 0.265
- APIP log2FC (Gene 51074): 0.142
- NDUFA13 log2FC (Gene 51079): -0.190
- GAL log2FC (Gene 51083): -0.531
- SH3GLB1 log2FC (Gene 51100): 0.592
- APH1A log2FC (Gene 51107): -0.202
- UTP11L log2FC (Gene 51118): -0.844
- IER3IP1 log2FC (Gene 51124): 0.463
- ANGPTL4 log2FC (Gene 51129): -0.967
- ING4 log2FC (Gene 51147): 1.465
- LEF1 log2FC (Gene 51176): -0.842
- BFAR log2FC (Gene 51283): 0.564
- PLAC8 log2FC (Gene 51316): -0.141
- TNFRSF12A log2FC (Gene 51330): -0.850
- ANGPT4 log2FC (Gene 51378): -0.106
- DDX41 log2FC (Gene 51428): -0.212
- GULP1 log2FC (Gene 51454): 1.616
- TRIAP1 log2FC (Gene 51499): -0.820
- ZC3HC1 log2FC (Gene 51530): 0.230
- PIAS4 log2FC (Gene 51588): -0.216
- PIGT log2FC (Gene 51604): 0.174
- TAF9B log2FC (Gene 51616): 0.427
- PTRH2 log2FC (Gene 51651): -0.336
- WWOX log2FC (Gene 51741): -0.809
- SIX4 log2FC (Gene 51804): 0.564
- IL20RA log2FC (Gene 53832): 0.097
- CYCS log2FC (Gene 54205): -0.446
- WNT4 log2FC (Gene 54361): -0.709
- DNAJC10 log2FC (Gene 54431): 0.727
- ZFAND6 log2FC (Gene 54469): 0.430
- ADAMTSL4 log2FC (Gene 54507): -0.301
- DDIT4 log2FC (Gene 54541): -0.893
- ING3 log2FC (Gene 54556): 0.777
- RRN3 log2FC (Gene 54700): -0.293
- AHI1 log2FC (Gene 54806): 0.585
- QRICH1 log2FC (Gene 54870): -0.061
- TMEM161A log2FC (Gene 54929): -0.567
- PHIP log2FC (Gene 55023): 1.243
- USP47 log2FC (Gene 55031): 0.762
- OXR1 log2FC (Gene 55074): 0.502
- UACA log2FC (Gene 55075): 0.817
- IFT57 log2FC (Gene 55081): 0.552
- XKR8 log2FC (Gene 55113): 0.287
- SHQ1 log2FC (Gene 55164): -0.250
- FAIM log2FC (Gene 55179): 0.209
- MAP1S log2FC (Gene 55201): -0.375
- ATAD3A log2FC (Gene 55210): -0.394
- STEAP3 log2FC (Gene 55240): -0.569
- RHOT1 log2FC (Gene 55288): 0.620
- RFK log2FC (Gene 55312): 0.519
- PARL log2FC (Gene 55486): -0.133
- TNFRSF19 log2FC (Gene 55504): -0.110
- CCAR1 log2FC (Gene 55749): 0.836
- PCID2 log2FC (Gene 55795): 0.322
- RNF130 log2FC (Gene 55819): 0.142
- EAF2 log2FC (Gene 55840): 0.438
- PSENEN log2FC (Gene 55851): -0.304
- BCAP29 log2FC (Gene 55973): 0.449
- TEX11 log2FC (Gene 56159): -0.066
- CTNNBL1 log2FC (Gene 56259): -0.141
- DIABLO log2FC (Gene 56616): -0.193
- ASAH2 log2FC (Gene 56624): -0.191
- TRIM39 log2FC (Gene 56658): -0.084
- BARHL1 log2FC (Gene 56751): -0.269
- FMN2 log2FC (Gene 56776): 0.105
- SPHK2 log2FC (Gene 56848): -0.628
- C8orf4 log2FC (Gene 56892): -0.080
- MEIS3 log2FC (Gene 56917): -0.061
- DUSP22 log2FC (Gene 56940): 0.419
- CIAPIN1 log2FC (Gene 57019): -0.388
- PCBP4 log2FC (Gene 57060): -0.519
- AVEN log2FC (Gene 57099): -0.627
- CAMK1D log2FC (Gene 57118): -0.141
- RTN4 log2FC (Gene 57142): 0.129
- PAK7 log2FC (Gene 57144): 0.396
- BIRC6 log2FC (Gene 57448): 0.155
- TAOK1 log2FC (Gene 57551): 0.386
- SEMA6A log2FC (Gene 57556): -0.108
- SH3RF1 log2FC (Gene 57630): -0.399
- USP28 log2FC (Gene 57646): 0.268
- GPAM log2FC (Gene 57678): 0.310
- CHD8 log2FC (Gene 57680): -0.199
- TRIB3 log2FC (Gene 57761): 0.343
- NGB log2FC (Gene 58157): -0.410
- RBM25 log2FC (Gene 58517): 0.406
- SAV1 log2FC (Gene 60485): 0.676
- PROK2 log2FC (Gene 60675): -0.050
- ELMO2 log2FC (Gene 63916): 0.581
- CIDEC log2FC (Gene 63924): 0.346
- FIGNL1 log2FC (Gene 63979): -0.206
- PERP log2FC (Gene 64065): 0.653
- MOAP1 log2FC (Gene 64112): 1.318
- RRAGC log2FC (Gene 64121): 1.860
- IFIH1 log2FC (Gene 64135): 0.885
- ZMAT3 log2FC (Gene 64393): -0.105
- ATG3 log2FC (Gene 64422): 0.283
- SUDS3 log2FC (Gene 64426): -0.126
- MICAL1 log2FC (Gene 64780): -0.454
- PLEKHG2 log2FC (Gene 64857): -0.832
